Test results as given in the supplement of paper PMC10307832.

Columns and labels:
Assay in all cases: relative viability (nuclei count vs DMSO), 5 days (fraction); higher = more cells survive
[1] = compound: Cc1nc(NC(=O)N2CCC[C@H]2C(N)=O)sc1-c1ccnc(C(C)(C)C(F)(F)F)c1 [Alpelisib] + CS(=O)(=O)CCNCc1ccc(-c2ccc3ncnc(Nc4ccc(OCc5cccc(F)c5)c(Cl)c4)c3c2)o1 [Lapatinib] (partner 2 µM)
How it was run: (§1)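 Values are medians from duplicate plates. Each reflects relative viability, defined as the nuclei count of treated wells over that of vehicle wells. Lung cancer cell lines in 1536-well plates were pin-tool dosed one day after seeding with one drug alone or with a fixed anchor-drug dose plus five library-drug doses (not always all listed) in √10 steps, then fixed, stained and imaged at 4× after 5 days.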

[2] = compound: COc1cccc2cc(-c3nc([C@H]4CC[C@H](C(=O)O)CC4)n4ncnc(N)c34)[nH]c12 [OSI-027] + CC(C)C[C@H](NC(=O)[C@H](Cc1ccccc1)NC(=O)c1cnccn1)B(O)O [Bortezomib] (partner 0.002 µM)
How it was run: as §1

[3] = compound: CCCS(=O)(=O)Nc1ccc(F)c(C(=O)c2c[nH]c3ncc(-c4ccc(Cl)cc4)cc23)c1F [Vemurafenib] + CC1(C)CCC(c2ccc(Cl)cc2)=C(CN2CCN(c3ccc(C(=O)NS(=O)(=O)c4ccc(N[C@H](CCN5CCOCC5)CSc5ccccc5)c(S(=O)(=O)C(F)(F)F)c4)cc3)CC2)C1 [Navitoclax] (partner 0.5 µM)
How it was run: as §1

[4] = compound: COc1cccc2cc(-c3nc([C@H]4CC[C@H](C(=O)O)CC4)n4ncnc(N)c34)[nH]c12 [OSI-027] + NC(=O)Nc1cc(-c2cccc(F)c2)sc1C(=O)N[C@H]1CCCNC1 [AZD7762] (partner 0.2 µM)
How it was run: as §1

Cell Line	relative viability ([1]; first compound 0.04 µM)	relative viability ([1]; first compound 0.1265 µM)	relative viability ([1]; first compound 0.4 µM)	relative viability ([1]; first compound 1.265 µM)	relative viability ([1]; first compound 4 µM)	relative viability ([2]; first compound 0.01 µM)	relative viability ([2]; first compound 0.03162 µM)	relative viability ([2]; first compound 0.1 µM)	relative viability ([2]; first compound 0.3162 µM)	relative viability ([2]; first compound 1 µM)	relative viability ([3]; first compound 0.03162 µM)	relative viability ([3]; first compound 0.3162 µM)	relative viability ([3]; first compound 1 µM)	relative viability ([4]; first compound 0.01 µM)	relative viability ([4]; first compound 0.03162 µM)	relative viability ([4]; first compound 0.1 µM)	relative viability ([4]; first compound 0.3162 µM)	relative viability ([4]; first compound 1 µM)	relative viability ([3]; first compound 0.1 µM)
HARA	0.747	0.699	0.46	0.305	0.209	1.12	1.1	1.15	0.979	0.67	1.09	1.13	1.14	0.27	0.301	0.36	0.419	0.365	
HCC-15	0.897	0.858	0.94	0.823	0.725	1.07	0.988	1	1.01	0.71	0.679	0.736	0.73	1.14	1.21	1.19	1.28	0.986	0.71
HCC-44	1.12	1.02	1.05	0.877	0.893	0.929	1	0.874	0.838	0.413	0.879	0.973	1.03	0.984	1.03	1.03	1.06	1.1	0.931
HCC-78	0.619	0.39	1.07	0.659	0.413	0.611	0.428	0.454	0.344	0.35	0.818	1.13	0.656	0.62	0.638	0.488	0.499	0.354	0.608
HCC-366	1.04	1.02	1.14	0.824	0.535	1.18	1.2	1.03	1.07	0.733	0.997		1.03	0.393	0.325	0.216	0.285	0.217	0.983
HCC-827	0.19	0.192	0.211	0.179	0.188	0.973	1.07	1.06	1.12	1.05	0.967	1	1.02	0.194	0.201	0.195	0.205	0.214	
HOP-62	1.03	0.775	1.02	0.826	0.794	0.679	0.726	0.377	0.65	0.609	0.939	0.966	1.05	0.611	0.47	0.33	0.587	0.284	1.12
LC-2-ad	0.958	1.01	0.975	0.645	0.542	1.03	0.984	1.05	1.09	0.662	0.457	0.535	0.46	0.835	0.77	0.879	0.894	0.615	0.422
